Entries after “also recorded” stand apart in the source; their conditions may differ. Read-outs that look alike come from different tables or passages of the source.
Experiments:
[1] = Adsorption/desorption cycles under relative humidity (weight increase, hygroscopicity)
[2] = XRPD analysis before and after adsorption/desorption cycles (physical stability, crystallinity); type: physicochemical
Method: X-ray powder diffraction studies are widely used to characterize molecular structures, crystallinity, and polymorphism. The X-ray powder diffraction patterns disclosed herein were generated on a Philips Analytical X′Pert PRO X-ray Diffraction System with PW3040/60 console. A PW3373/00 ceramic Cu LEF X-ray tube K-Alpha radiation was used as the source.
In addition, the chloride salt requires −20° C. storage to minimize chemical degradation while the acetate and caprate salts are less prone to degradation at higher temperatures. […] The stability of crystalline forms of the compounds of Formula I were characterized by XRPD under relative humidity conditions that simulate potential storage conditions.

COc1ccc(C[C@@H]2NC(=O)[C@H]([C@@H](C)O)NC(=O)[C@@H]3[C@@H]4CCN3C(=O)[C@@H]3Cc5cn(c6ccc(F)cc56)CCCCCCN(Cc5ccc(cc5)CCNC(=O)[C@]5(C)CCCN5C2=O)C(=O)CCC(=O)N[C@@H](C)C(=O)N[C@H](CNC(=O)CCCCC[N+](C)(C)C)C(=O)N[C@@H](Cc2cccc(c2)CNC(=O)CO4)C(=O)N3)cc1 [Acetate 4]
hysteresis during the desorption step ([1]; 5-95% RH cycle (FIG. 31A)): Hysteresis is observed
increase in weight ([1]; at 55% RH (FIG. 30A)): ~9%
increase in weight ([1]; at 95% RH (FIG. 31A, 33A)): ~40%
crystallinity by XRPD after adsorption/desorption ([2]; 5-95-5% RH adsorption/desorption cycle (FIG. 31B, 33B)): loses crystallinity
crystallinity by XRPD after adsorption/desorption ([2]; two adsorption/desorption cycles of 5-55% RH (FIG. 30B)): retains minimal crystallinity; also recorded: decrease in crystallinity

COc1ccc(C[C@@H]2NC(=O)[C@H]([C@@H](C)O)NC(=O)[C@@H]3[C@@H]4CCN3C(=O)[C@@H]3Cc5cn(c6ccc(F)cc56)CCCCCCN(Cc5ccc(cc5)CCNC(=O)[C@]5(C)CCCN5C2=O)C(=O)CCC(=O)N[C@@H](C)C(=O)N[C@H](CNC(=O)CCCCC[N+](C)(C)C)C(=O)N[C@@H](Cc2cccc(c2)CNC(=O)CO4)C(=O)N3)cc1 [Caprate 3]
increase in weight [1]: ~4.9%
relative humidity by which H2O is readily absorbed [1]: 25-35 % RH
relative humidity until which H2O is not lost [1]: 15 % RH
crystallinity by XRPD after adsorption/desorption [2]: maintains its crystallinity; also recorded: retains crystallinity

COc1ccc(C[C@@H]2NC(=O)[C@H]([C@@H](C)O)NC(=O)[C@@H]3[C@@H]4CCN3C(=O)[C@@H]3Cc5cn(c6ccc(F)cc56)CCCCCCN(Cc5ccc(cc5)CCNC(=O)[C@]5(C)CCCN5C2=O)C(=O)CCC(=O)N[C@@H](C)C(=O)N[C@H](CNC(=O)CCCCC[N+](C)(C)C)C(=O)N[C@@H](Cc2cccc(c2)CNC(=O)CO4)C(=O)N3)cc1 [Caprate 5]
hysteresis during the desorption steps [1]: Slight hysteresis is observed
crystallinity by XRPD after adsorption/desorption [2]: retains some crystallinity; also recorded: loses crystallinity; also recorded: decrease in crystallinity

COc1ccc(C[C@@H]2NC(=O)[C@H]([C@@H](C)O)NC(=O)[C@@H]3[C@@H]4CCN3C(=O)[C@@H]3Cc5cn(c6ccc(F)cc56)CCCCCCN(Cc5ccc(cc5)CCNC(=O)[C@]5(C)CCCN5C2=O)C(=O)CCC(=O)N[C@@H](C)C(=O)N[C@H](CNC(=O)CCCCC[N+](C)(C)C)C(=O)N[C@@H](Cc2cccc(c2)CNC(=O)CO4)C(=O)N3)cc1 [water-free Caprate 3]
increase in weight [1]: ~9.4%
crystallinity by XRPD after adsorption/desorption [2]: retains crystallinity

Source: patent US20260035411A1, “CRYSTALLINE FORMS OF A PCSK9 INHIBITOR, COMPOSITIONS AND USES” (MERCK SHARP & DOHME LLC, priority 2022, published 2026)
